Experimental data published in ChEMBL document CHEMBL1909046, “DrugMatrix in vitro pharmacology data”.
pIC50, pKi: −log10 of the molar value.

Assays:
[1] = biological target: T1, Progesterone receptor (Bos taurus, UniProt Q690N0); experiment: DRUGMATRIX: Progesterone radioligand binding (ligand: [3H] R-5020); assay type: tissue-based, Uterus; details: Not Active = under 50% inhibition at 10 µM
T1 sequence (Q690N0 whole entry): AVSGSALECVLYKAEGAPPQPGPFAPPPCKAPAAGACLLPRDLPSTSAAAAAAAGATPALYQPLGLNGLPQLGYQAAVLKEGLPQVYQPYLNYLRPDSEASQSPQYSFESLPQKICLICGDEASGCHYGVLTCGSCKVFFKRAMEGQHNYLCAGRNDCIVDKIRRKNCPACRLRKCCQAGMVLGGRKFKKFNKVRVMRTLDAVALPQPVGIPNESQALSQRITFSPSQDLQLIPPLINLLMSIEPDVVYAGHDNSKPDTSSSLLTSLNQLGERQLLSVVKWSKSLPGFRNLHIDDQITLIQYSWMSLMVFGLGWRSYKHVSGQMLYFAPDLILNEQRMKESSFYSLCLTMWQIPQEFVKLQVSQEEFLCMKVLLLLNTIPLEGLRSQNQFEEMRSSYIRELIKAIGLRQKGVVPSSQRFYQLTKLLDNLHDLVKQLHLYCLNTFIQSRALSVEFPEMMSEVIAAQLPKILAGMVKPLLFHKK

[2] = DRUGMATRIX: GABAA, Muscimol, Central radioligand binding (ligand: [3H] Muscimol); assay type: cell membranes, Rattus norvegicus, Wistar, Brain, Membrane; details: Not Active = under 50% inhibition at 10 µM
[3] = biological target: D(1A) dopamine receptor (Homo sapiens, UniProt P21728); experiment: DRUGMATRIX: Dopamine D1 radioligand binding (ligand: [3H] SCH-23390); assay type: cell membranes, CHO, Membrane; details: cho; Not Active = under 50% inhibition at 10 µM
D(1A) dopamine receptor, sequence (P21728 whole entry): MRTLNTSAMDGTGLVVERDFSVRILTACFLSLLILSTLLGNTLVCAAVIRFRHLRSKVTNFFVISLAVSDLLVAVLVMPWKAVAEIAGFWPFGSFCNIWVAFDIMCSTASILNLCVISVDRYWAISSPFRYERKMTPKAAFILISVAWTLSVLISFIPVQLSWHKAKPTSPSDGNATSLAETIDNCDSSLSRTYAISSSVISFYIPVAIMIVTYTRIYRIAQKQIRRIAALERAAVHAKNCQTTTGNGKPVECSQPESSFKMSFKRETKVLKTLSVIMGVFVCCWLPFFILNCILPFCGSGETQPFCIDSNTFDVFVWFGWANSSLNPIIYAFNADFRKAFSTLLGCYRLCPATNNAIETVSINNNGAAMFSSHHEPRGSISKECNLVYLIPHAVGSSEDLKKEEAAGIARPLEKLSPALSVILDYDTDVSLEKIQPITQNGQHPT

[4] = DRUGMATRIX: Glutamate, AMPA radioligand binding (ligand: [3H] AMPA); assay type: cell membranes, Rattus norvegicus, Wistar, Cerebral cortex, Membrane; details: Not Active = under 50% inhibition at 10 µM
[5] = DRUGMATRIX: Calcium Channel Type L, Dihydropyridine radioligand binding (ligand: [3H] Nitrendipine); assay type: cell membranes, Rattus norvegicus, Wistar, Cerebral cortex, Membrane; details: Not Active = under 50% inhibition at 10 µM
[6] = DRUGMATRIX: Serotonin (5-Hydroxytryptamine) 5-HT3 radioligand binding (ligand: [3H] GR-65630); assay type: cell membranes, Membrane; details: hek293, Not Active = under 50% inhibition at 10 µM
[7] = DRUGMATRIX: Phorbol Ester radioligand binding (ligand: [3H] PDBu); assay type: cell membranes, Mus musculus, ICR, Brain, Membrane; details: Not Active = under 50% inhibition at 10 µM
[8] = biological target: Mitogen-activated protein kinase 14 (Homo sapiens, UniProt Q16539); set-up: species or system Escherichia coli;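 further: inhibition of p38alpha enzyme activity in a biochemical kinase assay, with myelin basic protein serving as substrate; in other assays of this panel Not Active means under 50% inhibition at 10 µM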
Mitogen-activated protein kinase 14, sequence (Q16539 whole entry): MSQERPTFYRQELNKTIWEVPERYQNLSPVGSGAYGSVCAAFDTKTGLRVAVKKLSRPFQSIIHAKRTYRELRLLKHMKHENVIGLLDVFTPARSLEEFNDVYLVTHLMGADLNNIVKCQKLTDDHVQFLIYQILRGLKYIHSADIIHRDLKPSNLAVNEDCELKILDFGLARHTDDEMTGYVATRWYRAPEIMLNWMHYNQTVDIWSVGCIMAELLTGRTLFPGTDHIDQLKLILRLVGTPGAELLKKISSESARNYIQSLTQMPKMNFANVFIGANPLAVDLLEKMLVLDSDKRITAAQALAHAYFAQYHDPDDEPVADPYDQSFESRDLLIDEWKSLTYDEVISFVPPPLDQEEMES

[9] = biological target: Substance-P receptor (Homo sapiens, UniProt P25103); assay type: cell membranes, CHO, Membrane; details: cho; further: in other assays of this panel Not Active means under 50% inhibition at 10 µM
Substance-P receptor, sequence (P25103 whole entry): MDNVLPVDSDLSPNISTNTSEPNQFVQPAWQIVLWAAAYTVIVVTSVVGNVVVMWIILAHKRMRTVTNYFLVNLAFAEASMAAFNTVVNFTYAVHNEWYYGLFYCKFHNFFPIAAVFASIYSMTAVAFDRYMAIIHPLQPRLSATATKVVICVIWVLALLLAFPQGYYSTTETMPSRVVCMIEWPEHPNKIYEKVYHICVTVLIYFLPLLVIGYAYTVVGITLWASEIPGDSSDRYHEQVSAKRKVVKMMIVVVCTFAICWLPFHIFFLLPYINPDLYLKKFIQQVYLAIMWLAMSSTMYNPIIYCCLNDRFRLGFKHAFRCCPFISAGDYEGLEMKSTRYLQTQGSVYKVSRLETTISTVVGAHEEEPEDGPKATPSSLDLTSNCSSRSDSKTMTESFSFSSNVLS

[10] = biological target: Aldo-keto reductase family 1 member B1 (Rattus norvegicus, UniProt P07943); assay type: tissue-based, Lens of camera-type eye;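 further: inhibition of aldose reductase enzyme activity, measured with DL-glyceraldehyde as the substrate; in other assays of this panel Not Active means under 50% inhibition at 10 µM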
[11] = DRUGMATRIX: Glutamate, Kainate radioligand binding (ligand: [3H] Kainic acid); assay type: cell membranes, Rattus norvegicus, Wistar, Brain, Membrane; details: Not Active = under 50% inhibition at 10 µM
[12] = biological target: Melanocortin receptor 3 (Homo sapiens, UniProt P41968); assay type: cell membranes, Membrane; details: hek293; further: in other assays of this panel Not Active means under 50% inhibition at 10 µM
Melanocortin receptor 3, sequence (P41968 whole entry): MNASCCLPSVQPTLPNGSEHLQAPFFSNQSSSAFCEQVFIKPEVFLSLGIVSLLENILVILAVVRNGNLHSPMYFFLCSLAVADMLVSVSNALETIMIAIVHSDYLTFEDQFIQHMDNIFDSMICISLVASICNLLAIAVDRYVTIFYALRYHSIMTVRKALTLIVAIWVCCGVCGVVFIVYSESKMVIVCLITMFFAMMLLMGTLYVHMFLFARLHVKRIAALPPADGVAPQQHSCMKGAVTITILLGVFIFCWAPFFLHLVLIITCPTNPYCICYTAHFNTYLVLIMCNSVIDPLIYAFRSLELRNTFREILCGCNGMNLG

[13] = biological target: Carbonic anhydrase 2 (Homo sapiens, UniProt P00918); experiment: DRUGMATRIX: Carbonic Anhydrase II enzyme inhibition (substrate: 4-Nitrophenyl acetate (4-NPA)); assay type: tissue-based, Erythrocyte; details: erythrocyte; Not Active = under 50% inhibition at 10 µM
[14] = DRUGMATRIX: GABAA, Flunitrazepam, Central radioligand binding (ligand: [3H] Flunitrazepam); assay type: cell membranes, Rattus norvegicus, Wistar, Brain, Membrane; details: Not Active = under 50% inhibition at 10 µM
[15] = biological target: T2, Adenosine receptor A3 (Homo sapiens, UniProt P0DMS8); assay type: cell membranes, CHO-K1, Membrane; details: cho-k1
T2 sequence (P0DMS8 whole entry): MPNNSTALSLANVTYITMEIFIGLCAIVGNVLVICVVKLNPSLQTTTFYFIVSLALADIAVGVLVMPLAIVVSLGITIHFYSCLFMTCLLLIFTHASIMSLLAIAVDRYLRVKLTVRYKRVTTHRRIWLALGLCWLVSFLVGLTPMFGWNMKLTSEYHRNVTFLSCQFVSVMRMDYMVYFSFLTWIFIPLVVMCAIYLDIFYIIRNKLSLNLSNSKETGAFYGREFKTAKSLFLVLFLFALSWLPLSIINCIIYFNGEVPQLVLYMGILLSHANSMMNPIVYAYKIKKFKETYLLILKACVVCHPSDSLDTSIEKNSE

[16] = biological target: T3, C-X-C chemokine receptor type 1 (Homo sapiens, UniProt P25024); further: in other assays of this panel Not Active means under 50% inhibition at 10 µM
T3 sequence (P25024 whole entry): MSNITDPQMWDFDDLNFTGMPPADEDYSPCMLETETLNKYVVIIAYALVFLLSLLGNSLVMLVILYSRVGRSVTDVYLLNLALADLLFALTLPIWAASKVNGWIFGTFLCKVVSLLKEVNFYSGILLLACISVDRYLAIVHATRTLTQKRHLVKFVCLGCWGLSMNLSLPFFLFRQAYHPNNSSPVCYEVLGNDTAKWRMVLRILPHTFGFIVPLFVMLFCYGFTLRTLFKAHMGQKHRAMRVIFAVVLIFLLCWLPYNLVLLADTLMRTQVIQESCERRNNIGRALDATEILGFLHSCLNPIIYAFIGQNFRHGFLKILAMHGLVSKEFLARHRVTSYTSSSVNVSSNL

[17] = biological target: D(3) dopamine receptor (Homo sapiens, UniProt P35462); experiment: DRUGMATRIX: Dopamine D3 radioligand binding (ligand: [3H] Spiperone); assay type: cell membranes, CHO, Membrane; details: cho
D(3) dopamine receptor, sequence (P35462 whole entry): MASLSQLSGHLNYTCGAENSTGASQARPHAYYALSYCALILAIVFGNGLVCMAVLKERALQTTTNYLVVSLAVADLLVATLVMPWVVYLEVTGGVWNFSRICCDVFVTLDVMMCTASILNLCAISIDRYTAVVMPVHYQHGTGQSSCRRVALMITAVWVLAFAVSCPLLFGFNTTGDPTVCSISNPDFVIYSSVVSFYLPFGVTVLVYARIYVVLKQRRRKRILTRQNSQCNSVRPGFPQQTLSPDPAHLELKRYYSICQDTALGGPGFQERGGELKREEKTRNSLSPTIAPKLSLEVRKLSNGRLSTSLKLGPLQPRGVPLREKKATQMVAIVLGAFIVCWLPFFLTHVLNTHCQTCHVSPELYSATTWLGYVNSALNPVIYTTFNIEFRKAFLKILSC

[18] = biological target: T4, Interstitial collagenase (Homo sapiens, UniProt P03956); assay type: tissue-based, Rheumatoid synovial fibroblasts
T4 sequence (P03956 whole entry): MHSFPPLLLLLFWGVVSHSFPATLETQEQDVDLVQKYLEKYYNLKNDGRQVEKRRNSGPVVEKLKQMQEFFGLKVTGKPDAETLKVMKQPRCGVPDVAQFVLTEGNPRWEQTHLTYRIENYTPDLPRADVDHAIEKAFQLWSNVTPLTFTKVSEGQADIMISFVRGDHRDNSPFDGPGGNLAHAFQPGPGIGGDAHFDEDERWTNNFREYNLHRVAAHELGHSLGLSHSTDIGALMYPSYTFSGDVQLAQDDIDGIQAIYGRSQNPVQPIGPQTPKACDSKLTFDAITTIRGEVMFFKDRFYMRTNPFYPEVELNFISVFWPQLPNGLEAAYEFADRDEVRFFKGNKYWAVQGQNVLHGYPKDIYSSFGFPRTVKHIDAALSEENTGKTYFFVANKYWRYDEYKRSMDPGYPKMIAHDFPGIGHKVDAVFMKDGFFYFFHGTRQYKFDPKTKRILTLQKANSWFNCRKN

[19] = biological target: Delta-type opioid receptor (Homo sapiens, UniProt P41143); assay type: cell membranes, HEK293, Membrane; details: hek293; further: in other assays of this panel Not Active means under 50% inhibition at 10 µM
Delta-type opioid receptor, sequence (P41143 whole entry): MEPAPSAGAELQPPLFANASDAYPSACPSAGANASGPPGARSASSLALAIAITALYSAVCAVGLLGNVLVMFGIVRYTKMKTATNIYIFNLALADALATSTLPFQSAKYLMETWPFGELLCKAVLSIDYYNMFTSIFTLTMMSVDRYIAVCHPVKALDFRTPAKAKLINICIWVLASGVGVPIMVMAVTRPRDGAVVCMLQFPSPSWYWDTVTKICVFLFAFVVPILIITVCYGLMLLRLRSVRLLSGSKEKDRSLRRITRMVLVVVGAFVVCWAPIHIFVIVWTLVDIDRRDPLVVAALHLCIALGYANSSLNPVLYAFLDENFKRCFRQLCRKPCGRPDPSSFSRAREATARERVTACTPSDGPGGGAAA

[20] = biological target: Tyrosine-protein kinase Fyn (Homo sapiens, UniProt P06241); experiment: biochemical; assay type: cell-based, Insect cells; details: insect cells
Tyrosine-protein kinase Fyn, sequence (P06241 whole entry): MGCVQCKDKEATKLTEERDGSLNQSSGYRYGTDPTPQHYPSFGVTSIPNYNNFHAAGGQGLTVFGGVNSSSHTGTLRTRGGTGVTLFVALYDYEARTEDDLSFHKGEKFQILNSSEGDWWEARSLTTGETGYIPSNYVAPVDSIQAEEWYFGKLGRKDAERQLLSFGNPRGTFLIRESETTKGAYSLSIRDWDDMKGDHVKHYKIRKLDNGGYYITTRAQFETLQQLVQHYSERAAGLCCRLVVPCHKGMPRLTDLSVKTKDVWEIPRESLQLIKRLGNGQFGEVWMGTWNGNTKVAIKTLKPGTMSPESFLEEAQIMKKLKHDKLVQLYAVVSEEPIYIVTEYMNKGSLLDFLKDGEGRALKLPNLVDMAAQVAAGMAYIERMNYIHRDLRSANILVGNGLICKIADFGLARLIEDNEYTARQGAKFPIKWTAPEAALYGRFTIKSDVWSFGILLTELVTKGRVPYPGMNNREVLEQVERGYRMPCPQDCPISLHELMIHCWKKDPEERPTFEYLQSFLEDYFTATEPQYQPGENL

CN[C@@H]1[C@@H](O)[C@@H](O[C@@H]2[C@@H](O)[C@H](O[C@H]3OC(CN)=CC[C@H]3N)[C@@H](N)C[C@H]2N)OC[C@]1(C)O [SISOMICIN]
Not Active: IC50 [1] | IC50 [2] | Ki [2] | IC50 [3] | IC50 [4] | Ki [4] | IC50 [5] | Ki [5] | IC50 [6] | Ki [6] | IC50 [7] | Ki [7] | IC50 [8] | IC50 [9] | IC50 [10] | IC50 [11] | Ki [11] | IC50 [12] | IC50 [13] | IC50 [14] | Ki [14] | IC50 [15] | IC50 [16] | IC50 [17] | IC50 [18] | IC50 [19] | IC50 [20]

NNc1ccccc1 [PHENYLHYDRAZINE]
Not Active: IC50 [1] | IC50 [2] | Ki [2] | IC50 [3] | IC50 [4] | Ki [4] | IC50 [5] | Ki [5] | IC50 [6] | Ki [6] | IC50 [7] | Ki [7] | IC50 [8] | IC50 [9] | IC50 [10] | IC50 [11] | Ki [11] | IC50 [12] | IC50 [13] | IC50 [14] | Ki [14] | IC50 [15] | IC50 [16] | IC50 [17] | IC50 [18] | IC50 [19] | IC50 [20]

C[C@](N)(Cc1ccc(O)cc1)C(=O)O [METYROSINE]
Not Active: IC50 [1] | IC50 [2] | Ki [2] | IC50 [3] | IC50 [4] | Ki [4] | IC50 [5] | Ki [5] | IC50 [6] | Ki [6] | IC50 [7] | Ki [7] | IC50 [8] | IC50 [9] | IC50 [10] | IC50 [11] | Ki [11] | IC50 [12] | IC50 [13] | IC50 [14] | Ki [14] | IC50 [15] | IC50 [16] | IC50 [17] | IC50 [18] | IC50 [19] | IC50 [20]

CN1[C@@H]2CC[C@H]1C[C@@H](OC(=O)c1c[nH]c3ccccc13)C2 [TROPISETRON]
5.52: pIC50 ([2]; read-out: IC50)
Not Active: IC50 [3] | IC50 [4] | Ki [4] | IC50 [5] | Ki [5] | IC50 [7] | Ki [7] | IC50 [8] | IC50 [9] | IC50 [10] | IC50 [11] | Ki [11] | IC50 [12] | IC50 [13] | IC50 [15] | IC50 [16] | IC50 [17] | IC50 [18] | IC50 [19] | IC50 [20]
5.62: pKi ([2]; read-out: Ki)
8.17: pIC50 ([6]; read-out: IC50)
8.82: pKi ([6]; read-out: Ki)
5.94: pIC50 ([14]; read-out: IC50)
6.03: pKi ([14]; read-out: Ki)

COC(=O)C1=C(C)NC(C)=C(C(=O)OC)C1c1ccccc1[N+](=O)[O-] [NIFEDIPINE]
Not Active: IC50 [1] | IC50 [2] | Ki [2] | IC50 [3] | IC50 [4] | Ki [4] | IC50 [6] | Ki [6] | IC50 [7] | Ki [7] | IC50 [8] | IC50 [9] | IC50 [10] | IC50 [11] | Ki [11] | IC50 [12] | IC50 [13] | IC50 [14] | Ki [14] | IC50 [16] | IC50 [17] | IC50 [18] | IC50 [19] | IC50 [20]
7.32: pIC50 ([5]; read-out: IC50)
7.51: pKi ([5]; read-out: Ki)

CCC[C@@H]1C[C@@H](C(=O)N[C@@H]([C@H]2O[C@H](SC)[C@H](O)[C@@H](O)[C@H]2O)[C@@H](C)O)N(C)C1 [LINCOMYCIN]
Not Active: IC50 [2] | Ki [2] | IC50 [3] | IC50 [4] | Ki [4] | IC50 [5] | Ki [5] | IC50 [6] | Ki [6] | IC50 [7] | Ki [7] | IC50 [8] | IC50 [9] | IC50 [10] | IC50 [11] | Ki [11] | IC50 [12] | IC50 [13] | IC50 [14] | Ki [14] | IC50 [15] | IC50 [16] | IC50 [17] | IC50 [18] | IC50 [19] | IC50 [20]
